The values that follow come from patent publication US20110124888A1, “STYRYLBENZOFURAN DERIVATIVES AS INHIBITORS FOR BETA-AMYLOID FIBRIL FORMATION AND PREPARATION METHOD THEREOF” (Korea Institute of Science and Technology, priority 2008, published 2011).

Structures are written as SMILES.

Series [1] in a line: Passage test through the blood-brain barrier in mice (brain tissue). To be noted: for Kp / Tmax: mouse; for Kp: brain; for Tmax / Cmax (brain): brain tissue. It counts as in vivo, ICR mice. The protocol: (§1) 1) Test Animal and Administration of Test Compound
(§2) Three 7 week-old ICR mice (weight: about 30 g) and three 8 week-old SD rats (weight: about 250 g) were used per test group. A solution prepared by dissolving the compounds of Examples 9 and 17 in excipient (DMSO/Tween 20/saline: 0.1/0.6/2.3, v/v/v) were administered to each experimental animal. The test compound was orally administered in an amount of 10 mL per kg of body weight or intravenously administered in an amount of 5 mL per kg of body weight through the fine vein.
(§3) 2) Measurement of Concentration in Blood and Tissue (Simultaneous Test)
(§4) At 30 min, 1 hr, 2 hr, 4 hr, 10 hr and 24 hr after administration of test compound, the mice and rats were subjected to insufflations narcosis using isoflorane, followed by cutting the abdomen open. 1 mL of blood was collected from abdominal veins into the tube containing heparin (1000 IU/mL, 3 μl). The obtained blood sample was centrifuged at 12,000 rpm, for 2 min to obtain plasma. The obtained plasma was kept in freezer at −80° C. until the analysis.
(§5) (2) Organ Tissue-Sampling
(§6) The mice and rats from which the blood sample was obtained were subjected to bloodletting, and then, brain tissue of the mice and rats was collected. The brain tissue thus obtained was washed with physiological saline once or twice to remove blood. The weight of the brain tissue was measured after the removal of adipose tissue and peripheral tissue. 4% bovine serum albumin (BSA) solution diluted with 10-fold was added to the brain tissue. The resulting solution was subjected to homogenization using the homogenizer. The diluted homogenate thus obtained was placed in 2 ml of tube and was kept in freezer at −80° C. until the analysis. All of the treatments to the samples were performed in ice.
(§7) The sample was analyzed using LC/MSMS system under the following condition:
(§8) The sample was pretreated as follows:
(§9) 50 μL of plasma were placed in 2.0 mL of tube having a cap (Eppendorf Co.) and acidified by adding 20 μL of 0.1% formic acid thereto. An internal standard solution and 1 mL of ethyl acetate as an extract solvent were added to the resultant solution. The resultant solution was mixed using thermomixer (Eppendorf Co.) at 1400 rpm for 5 min and then subjected to centrifuge (Eppendorf Co.). The supernatant was collected and concentrated at 35° C. using cyclone. The residue was re-dissolved in 50 μL of moblie phase and 5 μL of the resulting solution was injected into LC/MS and analyzed.
(§10) In Tables 8 and 9, “iv” refers to a intravenous injection; “po” refers to a per oral; “AUC plasma” refers to an area under the plasma level-time curve; “Cmax” refers to a maximum plasma concentration; “Tmax” refers to a time to reach Cmax, “BA” refers to a bioavailability (%) according to Equation 2 below; “AUC Brain” refers to a area under the brain tissue level-time curve; and “AUCBrain/AUCPlasma” refers to a passage rate of the test compound to the brain.

Series [2] is described as follows: Passage test through the blood-brain barrier in rats (brain tissue). The class given is in vivo, SD rats. To be noted: for Cmax (brain) / Tmax: brain tissue; for Tmax / Kp: SD, rat; for Kp: brain, read-out: AUCBrain/AUC Plasma. The procedure:
as §1, §2, §3, §4, §5, §6, §7, §8, §9, §10

The nature of series [3]: Pharmacokinetics test in rats (plasma). It counts as in vivo, SD rats. The note with it: for BA: 2.5 mg/kg po vs 1.25 mg/kg iv; for AUC / Cmax / Tmax: SD, rat, plasma; for AUC: n = 3. The procedure: as §1, §2
2) Blood Concentration Test
At 30 min, 1 hr, 2 hr, 4 hr, 10 hr and 24 hr after oral administration of the test compounds, the blood was collected from periorbital veins into the tube containing heparin (1000 IU/mL, 3 μl) for the mice, and from jugular vein for rats. The blood sample was centrifuged at 12,000 rpm for 2 min to obtain plasma. The obtained plasma was kept in freezer at −80° C. until the analysis.
as §7, §8
50 μL of plasma was placed in 2.0 mL of tube having a cap (Eppendorf Co.) and acidified by adding 20 μL of 0.1% formic acid thereto. An internal standard solution and 1 mL of ethyl acetate as an extract solvent were added to the resultant solution. The resultant solution was mixed using thermomixer (Eppendorf Co.) at 1400 rpm for 5 min, and then subjected to centrifuge (Eppendorf Co.). The supernatant was collected and concentrated at 35° C. using cyclone. The residue was re-dissolved in 50 μL of moblie phase and 5 μL of the resulting solution was injected into LC/MS and analyzed.
as §10
Bioavailability (%)=[(AUCpo/AUCiv)×(Doseiv/Dosepo)×100] Equation 2
wherein, AUCpo means an area under the blood concentration time curve (AUC) after the per oral administration, AUCiv means an AUC after the intravenous injection, Doseiv means an amount of the intravenous injection, and Dosepo means an amount of the per oral administration.

The mark [4] stands for this setting: ICR (mice), SD (rats), mice and rats, Tables 8 and 9, read-out: passage ability through the blood-brain barrier compared with plasma.
Where [5] appears, read: ICR, mice, 1.25 mg/kg, iv, read-out: AUCBrain/AUC Plasma.
Where [6] appears, read: ICR, mice, 2.5 mg/kg, po, read-out: AUCBrain/AUC Plasma.

In the case of `COc1ccc2cc(C=Cc3ccc(N(C)C)cc3)oc2c1` [Compound 9, 6-methoxy-2-(4-dimethylaminostyryl)benzofuran], the Kp in series [1] (setting [4]) is at least 1; in series [1] (setting [5]) it was 12.1; in series [1] (setting [6]) it was 12.6; in series [2] (1.25 mg/kg, iv) it was 11; in series [2] (2.5 mg/kg, po), 16.8. The Tmax in series [1] (ICR, mice, 2.5 mg/kg, po) came to 4 h; in series [2] (2.5 mg/kg, po), 2 h; in series [3] (2.5 mg/kg, po), 1.67 h. The “AUC Brain” value in series [1] (mice, 1.25 mg/kg, iv) is 6101.86 ng·h/mL; in series [1] (mice, 2.5 mg/kg, po), 8137.42 ng·h/mL; in series [2] (1.25 mg/kg, iv), 17939.63 ng·h/mL; in series [2] (2.5 mg/kg, po) it was 15241.92 ng·h/mL. Moreover, the “Cmax (brain)” value in series [1] (mice, 2.5 mg/kg, po) turned out to be 899.33 ng/mL; in series [2] (2.5 mg/kg, po), 1309.00 ng/mL. This molecule also displayed a BA in series [3] of 27.8%. Also, the AUC in series [3] (1.25 mg/kg, iv) is 1640 ng·h/mL; in series [3] (2.5 mg/kg, po), 908 ng·h/mL. In addition, the peak concentration (Cmax) in series [3] (2.5 mg/kg, po) was determined as 215 ng/mL.

Regarding `CNc1ccc(C=Cc2cc3cc(OC)ccc3o2)cc1` [Compound 17, 5-methoxy-2-(4-methylaminostyryl)benzofuran], the Kp in series [1] (setting [4]) is at least 1; in series [1] (setting [5]), 10.6; in series [1] (setting [6]) it was 7.2; in series [2] (1.25 mg/kg, iv) it was 7.6; in series [2] (2.5 mg/kg, po), 21.8. Further, the time to peak (Tmax) in series [1] (ICR, mice, 2.5 mg/kg, po) was determined as 2 h; in series [2] (2.5 mg/kg, po), 1.67 h; in series [3] (2.5 mg/kg, po), 1.33 h. Besides, the “AUC Brain” value worked out at 2525.45 ng·h/mL in series [1] (mice, 1.25 mg/kg, iv); 2354.58 ng·h/mL in series [1] (mice, 2.5 mg/kg, po); 8740.33 ng·h/mL in series [2] (1.25 mg/kg, iv); 11237.67 ng·h/mL in series [2] (2.5 mg/kg, po). Further, the “Cmax (brain)” value in series [1] (mice, 2.5 mg/kg, po) is 462.67 ng/mL; in series [2] (2.5 mg/kg, po), 1406.67 ng/mL. Further, the BA in series [3] amounted to 22.4%. Moreover, the AUC in series [3] (1.25 mg/kg, iv) was determined as 1140 ng·h/mL; in series [3] (2.5 mg/kg, po) it was 516 ng·h/mL. Further, the Cmax in series [3] (2.5 mg/kg, po) was determined as 122 ng/mL.
